Laboratory results: patent US20110245316A1, “PREVENTION OR DELAY OF ONSET OF ORAL MUCOSITIS” (SCICLONE PHARMACEUTICALS, INC., priority 2010, published 2011)

How the values were obtained:
[1] = test system: cytokines and gene expression in CRT-treated HNC patients; assay: Cytokine and gene microarray analyses of patient samples; format: in vivo, human
Description: SCV-07 efficacy, dosing and scheduling parameters were assessed in hamster models of acute, fractionated and concomitant chemoradiation (CRT). […] A multicenter, prospective, blinded, randomized trial evaluated SCV-07's ability to alter OM in CRT-treated HNC patients (n=57). Cytokine and gene microarray analyses were performed for samples obtained before and on the last radiation day.

[2] = test system: patients receiving CT/RT for head and neck cancer; assay: Phase 2 trial: safety and tolerability; format: in vivo, human; settings: 0.02 or 0.1 mg/kg on each radiation day for up to 7 weeks
From the text: OM is a painful, debilitating, and costly toxicity of different chemoradiotherapy (CT/RT) regimens used to treat head and neck cancer. This trial is a phase 2, randomized, double-blind, dose-ranging, placebo-controlled three-arm study in patients receiving CT/RT for the treatment of head and neck cancer, to assess the safety and tolerability of γ-D-glutamyl-L-tryptophan (SCV-07) as well as its efficacy in delaying the onset of severe OM as assessed by the WHO Oral Mucositis Scale.
59 eligible patients with recently diagnosed, treatment naïve, pathologically-confirmed, non-metastatic squamous cell carcinoma of the oral cavity, oropharynx, hypopharynx or larynx were enrolled and treated with a concomitant regimen of CT/RT consisting of a continuous course of external beam irradiation (IMRT eligible) with a minimum cumulative dose of 50 Gray (Gy) and cisplatin monotherapy administered using standard weekly or tri-weekly dosing regimens (80-100 mg/m^2 administered on Days 0, 21 and 42) or weekly (30-40 mg/m^2). At least two ‘at risk’ intraoral sites were included in the radiation fields and received a cumulative RT dose of at least 50 Gy. Subjects were equally randomized to receive either placebo or one of two doses of γ-D-glutamyl-L-tryptophan (0.02 or 0.1 mg/kg) on each radiation day for up to 7 weeks.

[3] = test system: human head and neck cancer (HNC) lines; assay: Xenograft studies: CRT anti-tumor response; format: in vivo
[4] = persons who clinically responded to SCV-07

SMILES: N[C@H](CCC(=O)N[C@@H](Cc1c[nH]c2ccccc12)C(=O)O)C(=O)O [SCV-07, γ-D-glutamyl-L-tryptophan]
- ICAM ([1]; SCV-07-treated patients): Increases
- IL-1alpha ([1]; SCV-07-treated patients): Decreases
- IL-5 ([1]; SCV-07-treated patients): Decreases
- IL-12 ([1]; SCV-07-treated patients): Increases
- IL-15 ([1]; SCV-07-treated patients): Decreases
- MIF ([1]; SCV-07-treated patients): Increases
- MIP-1beta ([1]; SCV-07-treated patients): Increases
- MIP-3 alpha ([1]; SCV-07-treated patients): Decreases
- Pro-inflammatory cytokine levels ([1]; SCV-07-treated patients): reduced
- TNF-alpha ([1]; SCV-07-treated patients): Decreases
- VCAM ([1]; SCV-07-treated patients): Increases
- macrophage-associated cytokines ([1]; SCV-07-treated patients): Elevated
- Gene expression (microarray) ([1]; SCV-07 vs placebo patients): Gene expression differences were noted
- IL-21 [1, 4]: increases
- MIF [1, 4]: increases
- VEGF [1, 4]: decrease
- safety and tolerability [2]: safe and well tolerated with no drug-related serious adverse events reported
- safety and tolerability ([2]; listed as γ-D-glutamyl-L-tryptophan): safe and well tolerated
- impact on CRT anti-tumor response [3]: did not impact CRT anti-tumor response
